Experiments:
[1] = test system: Mycobacterium tuberculosis Erdman (autoluminescent); assay: GRinf, maximum normalised growth rate inhibition (three-drug combination) (unitless (-1 to 1)); higher = less effect (negative = killing)
Experimental: (§1)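 DiaMOND equipotent three-drug combination dose responses (10 doses, 1.5- or 2-fold spacing, centred on IC90) against autoluminescent M. tuberculosis Erdman in 8 in vitro models. Read-out is OD600, or luminescence for the intracellular and dormancy models, normalised to untreated wells. Hill-fit Einf, AUC25 and GRinf are potency metrics; FIC50 and FIC90 are total Loewe fractional inhibitory concentrations as log2 (negative = synergy).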

[2] = test system: Mycobacterium tuberculosis Erdman (autoluminescent); assay: total FIC50 (Loewe) at 50% inhibition, three-drug combination (log2); higher = more antagonistic
Experimental: as §1

[3] = test system: Mycobacterium tuberculosis Erdman (autoluminescent); assay: AUC25, normalised area under dose response up to IC25 (three-drug combination) (fraction (0-1)); higher = more potent at low dose
Experimental: as §1

[4] = test system: Mycobacterium tuberculosis Erdman (autoluminescent); assay: total FIC90 (Loewe) at 90% inhibition, three-drug combination (log2); higher = more antagonistic
Experimental: as §1

[5] = test system: Mycobacterium tuberculosis Erdman (autoluminescent); assay: Einf, fitted maximum growth inhibition of three-drug combination (fraction); higher = stronger maximal inhibition
Experimental: as §1

COc1nc2ccc(Br)cc2cc1[C@@H](c1ccccc1)[C@@](O)(CCN(C)C)c1cccc2ccccc12 [bedaquiline] + NNC(=O)c1ccncc1 [isoniazid] + CC(=O)NC[C@H]1CN(c2ccc(N3CCOCC3)c(F)c2)C(=O)O1 [linezolid]
Details	AUC25, [3]	Einf, [5]	GRinf, [1]	total FIC50, [2]	total FIC90, [4]
in vitro model: acidic pH 5.7, time point: constant (~7 days, model-specific)	0.106	0.912	-0.504	0.42	–
in vitro model: acidic pH 5.7, time point: terminal (~4-5 doublings, model-specific)	0.099	0.977	-0.207	0.426	0.522
in vitro model: intracellular J774, time point: constant = terminal	–	0.898	-0.0256	–	0.82

Details	AUC25, [3]	Einf, [5]	GRinf, [1]	total FIC50, [2]	total FIC90, [4]
in vitro model: butyrate, time point: constant (~7 days, model-specific)	0.0832	0.917	-0.00837	0.739	1.08
in vitro model: butyrate, time point: terminal (~4-5 doublings, model-specific)	0.0647	0.962	-0.0285	0.794	0.944
in vitro model: cholesterol 0.05 mM, time point: constant (~7 days, model-specific)	0.139	0.735	-0.291	0.27	–
in vitro model: cholesterol 0.05 mM, time point: terminal (~4-5 doublings, model-specific)	0.147	0.945	-0.463	4.34	0.413
in vitro model: cholesterol-high 0.2 mM, time point: constant (~7 days, model-specific)	0.114	0.955	-0.63	0.506	1.92
in vitro model: cholesterol-high 0.2 mM, time point: terminal (~4-5 doublings, model-specific)	0.0961	1	-0.702	0.549	0.793
in vitro model: dormancy (butyrate + nitrate, low O2), time point: constant (~7 days, model-specific)	0.0688	0.93	0.215	0.921	0.532
in vitro model: dormancy (butyrate + nitrate, low O2), time point: terminal (~4-5 doublings, model-specific)	0.0346	0.989	-0.127	0.777	0.255
in vitro model: standard 7H9 glycerol, time point: constant = terminal	0.0715	0.957	-0.0711	0.0514	-0.28
in vitro model: valerate, time point: constant (~7 days, model-specific)	0.107	0.928	-0.345	0.58	0.911
in vitro model: valerate, time point: terminal (~4-5 doublings, model-specific)	0.0588	0.959	-0.111	0.894	0.84

COc1nc2ccc(Br)cc2cc1[C@@H](c1ccccc1)[C@@](O)(CCN(C)C)c1cccc2ccccc12 [bedaquiline] + CC[C@@H](CO)NCCN[C@@H](CC)CO [ethambutol] + NC(=O)c1cnccn1 [pyrazinamide]
Details	AUC25, [3]	Einf, [5]	GRinf, [1]	total FIC50, [2]	total FIC90, [4]
in vitro model: acidic pH 5.7, time point: constant (~7 days, model-specific)	0.0897	0.873	-0.571	-0.0886	–
in vitro model: acidic pH 5.7, time point: terminal (~4-5 doublings, model-specific)	0.0657	0.97	-0.4	0.412	-0.299
in vitro model: intracellular J774, time point: constant = terminal	–	0.975	-0.486	–	-0.0128

Details	AUC25, [3]	Einf, [5]	GRinf, [1]	total FIC50, [2]	total FIC90, [4]
in vitro model: butyrate, time point: constant (~7 days, model-specific)	0.0804	0.958	-0.23	0.369	–
in vitro model: butyrate, time point: terminal (~4-5 doublings, model-specific)	0.0692	0.98	-0.518	0.327	-0.0291
in vitro model: cholesterol 0.05 mM, time point: constant (~7 days, model-specific)	0.0893	0.735	-0.275	–	–
in vitro model: cholesterol 0.05 mM, time point: terminal (~4-5 doublings, model-specific)	0.113	0.942	-0.531	1.2	–
in vitro model: cholesterol-high 0.2 mM, time point: constant (~7 days, model-specific)	0.0376	0.954	-0.425	1.15	–
in vitro model: cholesterol-high 0.2 mM, time point: terminal (~4-5 doublings, model-specific)	0.0549	1	-0.723	1	1.04
in vitro model: dormancy (butyrate + nitrate, low O2), time point: constant (~7 days, model-specific)	0.11	0.818	0.489	0.665	–
in vitro model: dormancy (butyrate + nitrate, low O2), time point: terminal (~4-5 doublings, model-specific)	0.106	0.99	-0.119	0.467	0.729
in vitro model: standard 7H9 glycerol, time point: constant = terminal	0.0685	0.924	0.0247	0.382	–
in vitro model: valerate, time point: constant (~7 days, model-specific)	0.0945	0.901	-0.0908	0.734	–
in vitro model: valerate, time point: terminal (~4-5 doublings, model-specific)	0.0602	0.954	-0.0443	0.806	-0.297

CC(C)/N=c1\cc2n(-c3ccc(Cl)cc3)c3ccccc3nc-2cc1Nc1ccc(Cl)cc1 [clofazimine] + NNC(=O)c1ccncc1 [isoniazid] + COc1c(N2C[C@@H]3CCCN[C@@H]3C2)c(F)cc2c(=O)c(C(=O)O)cn(C3CC3)c12 [moxifloxacin]
Details	AUC25, [3]	Einf, [5]	GRinf, [1]	total FIC50, [2]	total FIC90, [4]
in vitro model: acidic pH 5.7, time point: constant (~7 days, model-specific)	0.148	0.438	0.301	–	–
in vitro model: acidic pH 5.7, time point: terminal (~4-5 doublings, model-specific)	0.0974	0.923	-0.33	0.581	0.708
in vitro model: intracellular J774, time point: constant = terminal	–	1	-0.424	–	0.642

Details	AUC25, [3]	Einf, [5]	GRinf, [1]	total FIC50, [2]	total FIC90, [4]
in vitro model: butyrate, time point: constant (~7 days, model-specific)	0.0935	0.949	-0.0926	0.57	1.04
in vitro model: butyrate, time point: terminal (~4-5 doublings, model-specific)	0.0779	0.981	-0.0848	0.531	0.768
in vitro model: cholesterol 0.05 mM, time point: constant (~7 days, model-specific)	0.131	0.707	-0.174	0.411	–
in vitro model: cholesterol 0.05 mM, time point: terminal (~4-5 doublings, model-specific)	0.119	0.919	-0.228	0.344	0.0839
in vitro model: cholesterol-high 0.2 mM, time point: constant (~7 days, model-specific)	0.102	0.943	-0.266	0.253	0.868
in vitro model: cholesterol-high 0.2 mM, time point: terminal (~4-5 doublings, model-specific)	0.0858	1	-0.61	0.464	0.399
in vitro model: dormancy (butyrate + nitrate, low O2), time point: constant (~7 days, model-specific)	0.094	0.929	0.151	0.252	-0.33
in vitro model: dormancy (butyrate + nitrate, low O2), time point: terminal (~4-5 doublings, model-specific)	0.0919	0.988	-0.177	0.0561	1.09
in vitro model: standard 7H9 glycerol, time point: constant = terminal	0.0829	0.977	-0.209	0.374	0.44
in vitro model: valerate, time point: constant (~7 days, model-specific)	0.079	0.84	0.0938	0.474	–
in vitro model: valerate, time point: terminal (~4-5 doublings, model-specific)	0.0672	0.917	0.0935	0.256	0.99

— the supplement of paper PMC8617591
